In patent publication US10781224B2, “Bis(oxymethyl)phosphinic acid and biogenic metal salts thereof as regulators of plant growth and development” (priority 2016, dated 2020):

Experiments:
[1] = test system: winter wheat (Vershin variety); test: Winter wheat seed treatment with BHMPA salts: germination energy and germination rate; format: in vivo
Description: Control—Soaking Seeds in Water;
(§1) Experimental versions—soaking seeds in BHMPA solutions and solutions of BHMPA Ca, Mg, Na, Co, Mn, Cu, and Zn salts at 1·10^−6-1·10^−12% concentrations (doses). The studies were conducted in laboratory in Petri dishes; seed bed—two layers of filter paper. 50 seeds soaked in water (control) and in the solutions of the tested compounds (experimental) were placed into each dish. Wheat, corn, and rice seeds were exposed for one hour.
Analysis was conducted according to the government standards GOST 12038-84 “Crop seeds. Technical conditions for determining the germination energy and germination rate”, GOST 12044-93 “Crop seeds. Methods for determining disease contamination.”
(§2) Seed germination energy and rate were calculated in percent as an arithmetic mean of the four experimental results (germination energy on the 4th day, wheat germination on the 8th day, rice and corn germination—on the 7th day). Germination was determined based on the germinating power indicators (length of the roots and sprouts and their wet and dry mass per 100 shoots).
(§3) The effect of pre-sowing seed treatment with the claimed BHMPA salts of biogenic metals was studied on winter wheat (Vershin variety), corn (Krasnodar 385 MV variety), and rice (Diamant variety).

rice (Diamant variety) = test: Rice seed treatment with BHMPA salts: germinating power; format: in vivo
Description: as §1, §2, §3
The above data describe the seed viability only at the initial stage of germination, while the germination ability at the later stage of germination is defined by the initial germinating power. The method for the determination of the germinating power comprises measuring the height of the sprouts and primary roots, as well as the biomass and the dry mass thereof per 100 seedlings. [M. A. Kartuzova. Initial Germinating Power as Method of Biological Assessment of Seed Quality. Selection and Seed Farming, #2, 1953].

[2] = winter wheat Vershin, 1·10^−6% solution
[3] = winter wheat Vershin, 1·10^−7% solution
[4] = winter wheat Vershin, 1·10^−8% solution
[5] = winter wheat Vershin, 1·10^−9% solution
[6] = winter wheat Vershin, 1·10^−10% solution
[7] = winter wheat Vershin, 1·10^−11% solution
[8] = winter wheat Vershin, 1·10^−12% solution
[9] = winter wheat, comparative study vs Melaphen, 1·10^−12% solution
[10] = rice seed treatment, comparison with Melaphen (Table XXXIII), solution 1 · 10^−9%
[11] = rice seeds, solution concentration 1 · 10^−6%
[12] = rice seeds, solution concentration 1 · 10^−7%
[13] = rice seeds, solution concentration 1 · 10^−8%
[14] = rice seeds, solution concentration 1 · 10^−9%
[15] = rice seeds, solution concentration 1 · 10^−10%
[16] = rice seeds, solution concentration 1 · 10^−11%
[17] = rice seeds, solution concentration 1 · 10^−12%
[18] = rice, vs control, 1·10^−9% solution

O=P([O-])(CO)CO.O=P([O-])(CO)CO.[Ca+2] [Ca-salt, Calcium BHMPA Salt]
Germination energy [1, 2]: 85.3%
Germination rate [1, 2]: 88.0%
Germination energy [1, 3]: 90.8%
Germination rate [1, 3]: 94.3%
Germination energy [1, 4]: 80.9%
Germination rate [1, 4]: 84.0%
Germination energy [1, 5]: 81.2%
Germination rate [1, 5]: 85.3%
Germination energy [1, 6]: 86.1%
Germination rate [1, 6]: 88.0%
Germination energy [1, 7]: 87.0%
Germination rate [1, 7]: 89.3%
Germination energy [1, 8]: 88.9%
Germination rate [1, 8]: 92.0%
Germination energy [1, 9]: 87.0%
Germination rate [1, 9]: 93.7%
optimum concentration for treating rice seeds before sowing (rice (Diamant variety); rice): 1·10^−9%
Length, root (rice (Diamant variety); [10]): 6.2 cm
Length, root, + % to control (rice (Diamant variety); [10]): 29%
Length, sprout (rice (Diamant variety); [10]): 3.5 cm
Length, sprout, + % to control (rice (Diamant variety); [10]): 35%
Mass, dry, root (rice (Diamant variety); [10]): 0.23 g/100 plantlings
Mass, dry, root, + % to control (rice (Diamant variety); [10]): 9.5%
Mass, dry, sprout (rice (Diamant variety); [10]): 0.27 g/100 plantlings
Mass, dry, sprout, + % to control (rice (Diamant variety); [10]): 8%
Mass, wet, root (rice (Diamant variety); [10]): 1.33 g/100 plantlings
Mass, wet, root, + % to control (rice (Diamant variety); [10]): 36%
Mass, wet, sprout (rice (Diamant variety); [10]): 2.24 g/100 plantlings
Mass, wet, sprout, + % to control (rice (Diamant variety); [10]): 48%
Length, root (rice (Diamant variety); [11]): 5.7 cm
Length, root, + % to control (rice (Diamant variety); [11]): 10%
Length, sprout (rice (Diamant variety); [11]): 2.8 cm
Length, sprout, + % to control (rice (Diamant variety); [11]): 12%
Mass, dry, root (rice (Diamant variety); [11]): 0.19 g/100 plantlings
Mass, dry, root, + % to control (rice (Diamant variety); [11]): 12%
Mass, dry, sprout (rice (Diamant variety); [11]): 0.23 g/100 plantlings
Mass, dry, sprout, + % to control (rice (Diamant variety); [11]): 9.5%
Mass, wet, root (rice (Diamant variety); [11]): 1.10 g/100 plantlings
Mass, wet, root, + % to control (rice (Diamant variety); [11]): 14.5%
Mass, wet, sprout (rice (Diamant variety); [11]): 1.92 g/100 plantlings
Mass, wet, sprout, + % to control (rice (Diamant variety); [11]): 9%
Length, root (rice (Diamant variety); [12]): 5.9 cm
Length, root, + % to control (rice (Diamant variety); [12]): 13%
Length, sprout (rice (Diamant variety); [12]): 3.0 cm
Length, sprout, + % to control (rice (Diamant variety); [12]): 20%
Mass, dry, root (rice (Diamant variety); [12]): 0.24 g/100 plantlings
Mass, dry, root, + % to control (rice (Diamant variety); [12]): 41%
Mass, dry, sprout (rice (Diamant variety); [12]): 0.26 g/100 plantlings
Mass, dry, sprout, + % to control (rice (Diamant variety); [12]): 24%
Mass, wet, root (rice (Diamant variety); [12]): 1.21 g/100 plantlings
Mass, wet, root, + % to control (rice (Diamant variety); [12]): 26%
Mass, wet, sprout (rice (Diamant variety); [12]): 2.16 g/100 plantlings
Mass, wet, sprout, + % to control (rice (Diamant variety); [12]): 23%
Length, root (rice (Diamant variety); [13]): 6.3 cm
Length, root, + % to control (rice (Diamant variety); [13]): 21%
Length, sprout (rice (Diamant variety); [13]): 3.1 cm
Length, sprout, + % to control (rice (Diamant variety); [13]): 24%
Mass, dry, root (rice (Diamant variety); [13]): 0.27 g/100 plantlings
Mass, dry, root, + % to control (rice (Diamant variety); [13]): 59%
Mass, dry, sprout (rice (Diamant variety); [13]): 0.28 g/100 plantlings
Mass, dry, sprout, + % to control (rice (Diamant variety); [13]): 33%
Mass, wet, root (rice (Diamant variety); [13]): 1.24 g/100 plantlings
Mass, wet, root, + % to control (rice (Diamant variety); [13]): 29%
Mass, wet, sprout (rice (Diamant variety); [13]): 2.25 g/100 plantlings
Mass, wet, sprout, + % to control (rice (Diamant variety); [13]): 28%
Length, root (rice (Diamant variety); [14]): 6.6 cm
Length, root, + % to control (rice (Diamant variety); [14]): 27%
Length, sprout (rice (Diamant variety); [14]): 3.2 cm
Length, sprout, + % to control (rice (Diamant variety); [14]): 28%
Mass, dry, root (rice (Diamant variety); [14]): 0.30 g/100 plantlings
Mass, dry, root, + % to control (rice (Diamant variety); [14]): 76%
Mass, dry, sprout (rice (Diamant variety); [14]): 0.32 g/100 plantlings
Mass, dry, sprout, + % to control (rice (Diamant variety); [14]): 52%
Mass, wet, root (rice (Diamant variety); [14]): 1.29 g/100 plantlings
Mass, wet, root, + % to control (rice (Diamant variety); [14]): 34%
Mass, wet, sprout (rice (Diamant variety); [14]): 2.36 g/100 plantlings
Mass, wet, sprout, + % to control (rice (Diamant variety); [14]): 34%
Length, root (rice (Diamant variety); [15]): 6.4 cm
Length, root, + % to control (rice (Diamant variety); [15]): 23%
Length, sprout (rice (Diamant variety); [15]): 3.0 cm
Length, sprout, + % to control (rice (Diamant variety); [15]): 20%
Mass, dry, root (rice (Diamant variety); [15]): 0.28 g/100 plantlings
Mass, dry, root, + % to control (rice (Diamant variety); [15]): 65%
Mass, dry, sprout (rice (Diamant variety); [15]): 0.29 g/100 plantlings
Mass, dry, sprout, + % to control (rice (Diamant variety); [15]): 38%
Mass, wet, root (rice (Diamant variety); [15]): 1.27 g/100 plantlings
Mass, wet, root, + % to control (rice (Diamant variety); [15]): 32%
Mass, wet, sprout (rice (Diamant variety); [15]): 2.28 g/100 plantlings
Mass, wet, sprout, + % to control (rice (Diamant variety); [15]): 29.5%
Length, root (rice (Diamant variety); [16]): 6.0 cm
Length, root, + % to control (rice (Diamant variety); [16]): 15%
Length, sprout (rice (Diamant variety); [16]): 2.9 cm
Length, sprout, + % to control (rice (Diamant variety); [16]): 16%
Mass, dry, root (rice (Diamant variety); [16]): 0.23 g/100 plantlings
Mass, dry, root, + % to control (rice (Diamant variety); [16]): 35%
Mass, dry, sprout (rice (Diamant variety); [16]): 0.27 g/100 plantlings
Mass, dry, sprout, + % to control (rice (Diamant variety); [16]): 28.5%
Mass, wet, root (rice (Diamant variety); [16]): 1.22 g/100 plantlings
Mass, wet, root, + % to control (rice (Diamant variety); [16]): 27%
Mass, wet, sprout (rice (Diamant variety); [16]): 1.98 g/100 plantlings
Mass, wet, sprout, + % to control (rice (Diamant variety); [16]): 12.5%
Length, root (rice (Diamant variety); [17]): 5.6 cm
Length, root, + % to control (rice (Diamant variety); [17]): 8%
Length, sprout (rice (Diamant variety); [17]): 2.7 cm
Length, sprout, + % to control (rice (Diamant variety); [17]): 8%
Mass, dry, root (rice (Diamant variety); [17]): 0.19 g/100 plantlings
Mass, dry, root, + % to control (rice (Diamant variety); [17]): 12%
Mass, dry, sprout (rice (Diamant variety); [17]): 0.26 g/100 plantlings
Mass, dry, sprout, + % to control (rice (Diamant variety); [17]): 24%
Mass, wet, root (rice (Diamant variety); [17]): 1.06 g/100 plantlings
Mass, wet, root, + % to control (rice (Diamant variety); [17]): 10%
Mass, wet, sprout (rice (Diamant variety); [17]): 1.88 g/100 plantlings
Mass, wet, sprout, + % to control (rice (Diamant variety); [17]): 7%
dry mass of the roots increased by (rice (Diamant variety); [18]): 76%
dry mass of the sprouts increased by (rice (Diamant variety); [18]): 52%
length of the root increased by (rice (Diamant variety); [18]): 27%
length of the sprout increased by (rice (Diamant variety); [18]): 28%
wet mass of the roots increased by (rice (Diamant variety); [18]): 34%
wet mass of the sprouts increased by (rice (Diamant variety); [18]): 34%
